Measurements published in US20120100361A1, “ANTISEPTIC COMPOSITION FOR ENGINEERING WOOD PRODUCTION, AND ENGINEERING WOOD” (SDS BIOTECH K.K., priority 2009, published 2012).

Experiments:
[1] = system: fungus cellar soil-bed; assay: Fungus cellar soil-bed test of preservative LVL (JIS K1571:2004); settings: 25° C., grade 0 sound condition to 5 out of shape due to the decay
Procedure: (§1) 1000 g of the phenol resin-based glue Deernol D-117 (manufactured by Oshika Corporation), 70 g of wheat flour and 100 g of calcium carbonate were mixed and well kneaded. A solution of each of the compounds of Example 1 and Comparative Example 1, 2 and 5 to 25 was added to the kneaded product so that the final concentrations of the compound in the wood become 150, 100, 50 and 25 g/m^3 and further kneaded. 18 g of the above kneaded product was applied onto each of the surface of glue line of the three Radiata pine veneer sheets having an area of 30 x 30 cm and thickness of 3 mm. After bonding the three sheets to each other, the sheets were subjected to cold pressing at room temperature for 20 minutes and the thermal pressure of 140° C. (10 kgf/cm^2) was applied to the sheets for two minutes to obtain the target LVL. Each of the prepared LVL was processed into the size of 20×20×9 mm to serve as a test sample.
The preservative LVL was prepared in the same manner in Preparation Example 3. Each of the prepared LVL was processed into the size of 9×9×100 mm to serve as a test sample.
(§2) The samples of the plywood and LVL prepared in Preparation Examples 4 and 5 were evaluated by the fungus cellar soil-bed test according to JIS K1571:2004. The weather resistance operation and the test method for the antiseptic effect were performed according to the above test method. The test was carried out for six months setting the test temperature to 25° C. (because the grade average of the decay damage of the non-treated test samples exceeded 2.5 in six months). […] The effect in the glue line treatment was actually investigated with respect to a number of existing antiseptics, and it was confirmed that only epoxyconazole is suitable for the glue line treatment at a low concentration.

[2] = system: Trametes versicolor; assay: Test for antiseptic effects of preservative plywood (JIS K1571:2004); type: cell-based; settings: plywood, urea melamine resin, Trametes versicolor
Procedure: (§3) 1000 g of urea melamine resin (PWP-60, manufactured by Oshika Corporation) was added to 180 g of wheat flour and fully kneaded to thereby obtain a kneaded product. 8 g of ammonium chloride was added as a hardening agent to the kneaded product, and a solution of each of the compounds of Example 1 and Comparative Example 1, 2 and 5 to 25 was further added thereto so that the final concentrations of the compound in the wood become 150, 100, 50 and 25 g/m^3 and kneaded. 18 g of the above kneaded product was applied onto each of the bonding plane of the three red lauan veneer sheets having an area of 30 x 30 cm and thickness of 0.85 mm/2.4 mm/0.85 mm. After bonding the three sheets to each other, the sheets were subjected to cold pressing at room temperature for 20 minutes and the thermal pressure of 120° C. (10 kgf/cm^2) was applied to the sheets for two minutes to obtain the target plywood. Each of the prepared plywood was processed into the size of 20×20×4.1 mm to serve as a test sample.
(§4) The samples of the plywood and LVL prepared in Preparation Examples 2 and 3 were evaluated by the test for antiseptic effects for the drug pressure treatment according to JIS K1571:2004. The weather resistance operation and the test method for the antiseptic effect were performed according to the above test method.

[3] = system: Fomitopsis palustris; assay: as above; type: cell-based; settings: for average rate of decrease in weight: plywood, urea melamine resin, Fomitopsis palustris
Procedure: as §3, §4

[4] = system: fungus cellar soil-bed; assay: Fungus cellar soil-bed test of preservative plywood (JIS K1571:2004); settings: for Grade average of the decay damage of five test samples: plywood, six months, 25° C., grade 0 sound condition to 5 out of shape due to the decay
Procedure: as §3
The preservative plywood was prepared in the same manner in Preparation Example 2. Each of the prepared plywood was processed into the size of 8.9 x 8.9×100 mm to serve as a test sample.
as §2

[5] = Test for miscibility with a phenol resin glue; type: physicochemical; set-up: key to Phenol resin status after 60 minutes: ∘: No change; x: Obvious increase in the viscosity was seen and it seems impossible to apply the composition onto the veneer sheet; settings: 10% (w/w) solution added to phenol resin glue Deernol D-117 kneaded product; viscosity change visually observed for 60 minutes
Procedure: The following compounds, which are known to have wood preservative activity, are dissolved in methyl ethylene triglycol to reach a concentration of 10% (w/w) to thereby obtain a solution of each of the compounds.
1000 g of phenol resin-based glue Deernol D-117 (manufactured by Oshika Corporation), 70 g of wheat flour and 100 g of calcium carbonate were mixed and well kneaded. Each of the solutions of Example 1 and Comparative Example 1 to 25 was added to 17 g of the kneaded product and mixed well together. The viscosity change of the glue was visually observed for 60 minutes. […] Although a number of documents listed as the prior art documents and the like teach that quaternary ammonium compounds can be applied to the glue line treatment, it is clear that those compounds have a problem for practical use (Comparative Examples 3 and 4). On the other hand, it was confirmed that the other compounds including that of Example has no problem from the viewpoint of compatibility.

[6] = system: Trametes versicolor; assay: Test for antiseptic effects of preservative LVL (JIS K1571:2004); type: cell-based; settings: phenol resin
Procedure: as §1, §4

[7] = system: Fomitopsis palustris; assay: as above; type: cell-based; settings: phenol resin
Procedure: as §1, §4

[8] = treated amount 25 g/m^3, six months
[9] = treated amount 50 g/m^3, six months
[10] = treated amount 100 g/m^3, six months
[11] = treated amount 150 g/m^3, six months

Row | SMILES | Grade average of the decay damage of five test samples [1, 8] | Grade average of the decay damage of five test samples [1, 9] | Grade average of the decay damage of five test samples [1, 10] | Grade average of the decay damage of five test samples [1, 11] | average rate of decrease in weight ([2]; treated amount 25 g/m^3) | average rate of decrease in weight ([2]; treated amount 50 g/m^3) | average rate of decrease in weight ([2]; treated amount 100 g/m^3) | average rate of decrease in weight ([2]; treated amount 150 g/m^3) | average rate of decrease in weight ([3]; treated amount 25 g/m^3) | average rate of decrease in weight ([3]; treated amount 50 g/m^3) | average rate of decrease in weight ([3]; treated amount 100 g/m^3) | average rate of decrease in weight ([3]; treated amount 150 g/m^3) | Grade average of the decay damage of five test samples ([4]; treated amount 25 g/m^3) | Grade average of the decay damage of five test samples ([4]; treated amount 50 g/m^3) | Grade average of the decay damage of five test samples ([4]; treated amount 100 g/m^3) | Grade average of the decay damage of five test samples ([4]; treated amount 150 g/m^3) | Phenol resin status after 60 minutes [5] | average rate of decrease in weight ([6]; treated amount 25 g/m^3) | average rate of decrease in weight ([6]; treated amount 50 g/m^3) | average rate of decrease in weight ([6]; treated amount 100 g/m^3) | further results
1 | Fc1ccc([C@]2(Cn3cncn3)O[C@H]2c2ccccc2Cl)cc1 (racemic) [Example 1, Epoxyconazole] | 0.4 | 0 | 0 | 0 | ◯ (The average rate of decrease in weight was less than 3%.) | ◯ (The average rate of decrease in weight was less than 3%.) | ◯ (The average rate of decrease in weight was less than 3%.) | ◯ (The average rate of decrease in weight was less than 3%.) | ◯ (The average rate of decrease in weight was less than 3%.) | ◯ (The average rate of decrease in weight was less than 3%.) | ◯ (The average rate of decrease in weight was less than 3%.) | ◯ (The average rate of decrease in weight was less than 3%.) | 0.2 | 0 | 0 | 0 | ∘ | ◯ (The average rate of decrease in weight was less than 3%.) | ◯ (The average rate of decrease in weight was less than 3%.) | ◯ (The average rate of decrease in weight was less than 3%.) | amount showing sufficient antiseptic effect ([3]; glue line method, plywood and LVL, both fungi, summary of Tables 2 and 3): 25 to 50 g/m^3; amount showing sufficient antiseptic effect ([4]; fungus cellar soil-bed test, plywood and LVL, text summary of Tables 4 and 5): 25 to 50 g/m^3; average rate of decrease in weight ([6]; treated amount 150 g/m^3): ◯ (The average rate of decrease in weight was less than 3%.); average rate of decrease in weight ([7]; treated amount 25 g/m^3): ◯ (The average rate of decrease in weight was less than 3%.); average rate of decrease in weight ([7]; treated amount 50 g/m^3): ◯ (The average rate of decrease in weight was less than 3%.); average rate of decrease in weight ([7]; treated amount 100 g/m^3): ◯ (The average rate of decrease in weight was less than 3%.); average rate of decrease in weight ([7]; treated amount 150 g/m^3): ◯ (The average rate of decrease in weight was less than 3%.)
2 | CCCCNC(=O)OCC#CI [Comparative Example 23, 3-iode-2-propynyl-n-butylcarbamate] | 3.0 | 3.4 | 3.2 | 2.6 | X (The average rate of decrease in weight was 3% or more.) | X (The average rate of decrease in weight was 3% or more.) | X (The average rate of decrease in weight was 3% or more.) | X (The average rate of decrease in weight was 3% or more.) | X (The average rate of decrease in weight was 3% or more.) | X (The average rate of decrease in weight was 3% or more.) | X (The average rate of decrease in weight was 3% or more.) | X (The average rate of decrease in weight was 3% or more.) | 2.8 | 2.8 | 3.2 | 2.8 | ∘ | X (The average rate of decrease in weight was 3% or more.) | X (The average rate of decrease in weight was 3% or more.) | X (The average rate of decrease in weight was 3% or more.) | average rate of decrease in weight ([6]; treated amount 150 g/m^3): X (The average rate of decrease in weight was 3% or more.); average rate of decrease in weight ([7]; treated amount 25 g/m^3): X (The average rate of decrease in weight was 3% or more.); average rate of decrease in weight ([7]; treated amount 50 g/m^3): X (The average rate of decrease in weight was 3% or more.); average rate of decrease in weight ([7]; treated amount 100 g/m^3): X (The average rate of decrease in weight was 3% or more.); average rate of decrease in weight ([7]; treated amount 150 g/m^3): X (The average rate of decrease in weight was 3% or more.)
